Reference: patent US20220280661A1, “GLUCOCORTICOID RECEPTOR RADIOLIGANDS AND METHODS FOR THEIR PREPARATION AND USE” (The Regents of the University of California, priority 2019, published 2022)
Where two headings read alike, the source gives them in different places.

Target: T1, GR (Homo sapiens, UniProt P04150)
T1 construct: evaluated using ^3H-ligand displacement assays on cells; endogenous in cells; host or cells: DU145
T1 sequence (P04150 1-777): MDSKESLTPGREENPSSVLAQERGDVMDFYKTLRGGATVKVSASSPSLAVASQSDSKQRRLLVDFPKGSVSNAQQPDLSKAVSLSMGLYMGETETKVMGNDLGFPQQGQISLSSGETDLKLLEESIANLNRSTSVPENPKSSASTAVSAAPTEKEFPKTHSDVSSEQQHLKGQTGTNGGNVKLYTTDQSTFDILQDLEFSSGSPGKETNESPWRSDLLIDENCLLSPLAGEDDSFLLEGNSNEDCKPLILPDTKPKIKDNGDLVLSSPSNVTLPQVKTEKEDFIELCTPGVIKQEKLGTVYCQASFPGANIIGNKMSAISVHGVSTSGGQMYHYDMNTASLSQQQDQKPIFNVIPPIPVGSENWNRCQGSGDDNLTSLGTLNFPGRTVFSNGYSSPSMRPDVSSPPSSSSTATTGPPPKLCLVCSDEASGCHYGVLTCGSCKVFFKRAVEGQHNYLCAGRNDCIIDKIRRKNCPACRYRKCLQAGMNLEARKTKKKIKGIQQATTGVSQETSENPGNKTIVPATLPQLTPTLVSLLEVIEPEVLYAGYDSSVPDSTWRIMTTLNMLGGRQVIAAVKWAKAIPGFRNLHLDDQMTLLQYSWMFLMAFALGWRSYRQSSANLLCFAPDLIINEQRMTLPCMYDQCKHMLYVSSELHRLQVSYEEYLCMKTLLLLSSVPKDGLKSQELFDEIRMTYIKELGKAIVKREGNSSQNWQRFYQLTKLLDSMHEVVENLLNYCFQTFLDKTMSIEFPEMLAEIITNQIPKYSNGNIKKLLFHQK
Assay: 3H-ligand displacement assay on cells, GR (DU145)
Format: binding
Details: for selectivity for GR over other subfamily 3 nuclear hormone receptors: relative affinity
Method: The affinity of YJH08 for GR and the other type 1 subfamily 3 nuclear hormone receptors was evaluated using ^3H-ligand displacement assays on cells. The Kd for subfamily 3 class C nuclear hormone receptors was determined on cells by displacing ^3H-steroidal agonists for the respective receptor. […] The Kd was determined using the following cell lines: DU145 (GR), LNCaP-AR (AR), MCF7 (PR, ER), and HEK293 transiently overexpressing full length human MR.
The cold ligands and ^3H-steroids were co-incubated on cells in PBS at room temperature for one hour. Following incubation, the cells were washed twice with ice cold PBS and the unbound activity was retained for analysis. The cells were lysed with 1 mL of 1M NaOH and collected. Bound and unbound fractions were counted in a liquid scintillation counter and expressed as a percentage of the total activity added per equal relative number of cells. […] These experiments were performed at three concentrations of experimental ligand (1 pM, 100 nM and 10 μM), and a linear extrapolation was used to subtract the non-specific component of binding from each treatment condition. The specific binding component was plotted against the log of the competing ligand and curve fit using a non-linear regression algorithm with PRISM software.

fold more potent than the agonist dexamethasone (GR)	Kd (DU145 cells, 3H-dexamethasone, Reference = dexamethasone, read-out: Kd GR) [nM]	Kd (read-out: Kd for GR) [nM]	SMILES	selectivity for GR over other subfamily 3 nuclear hormone receptors	affinity for GR (in words)
about 10 fold	0.401	~0.4	COc1cccc2c1-c1ccc3c(c1C(Cc1ccc(F)cc1)O2)C(C)=CC(C)(C)N3 (racemic) [YJH08, 5-(4-fluorobenzyl)-10-methoxy-2,2,4-trimethyl-2,5-dihydro-1H-chromeno[3,4-f]quinoline]	at least 100 fold	–
–	–	–	COc1cccc2c1-c1ccc3c(c1C(Cc1ccc([18F])cc1)O2)C(C)=CC(C)(C)N3 (racemic) [[18F]-YJH08, [^18F]-5-(4-fluorobenzyl)-10-methoxy-2,2,4-trimethyl-2,5-dihydro-1H-chromeno[3,4-f]quinoline]	at least 100 fold	sub nM
